For assay [1], the target named is Phospholipid transfer protein (Homo sapiens) (UniProt P55058). In words: Inhibition of PLTP in plasma (unknown origin) assessed as reduction in phospholipid transfer from phospholipid liposome to HDL at 250 uM measured after 1 hr relative to control. The format is cell-free.
The target in assay [2] is T1, Cholesteryl ester transfer protein (Homo sapiens) (UniProt P11597).
T1 sequence (whole entry): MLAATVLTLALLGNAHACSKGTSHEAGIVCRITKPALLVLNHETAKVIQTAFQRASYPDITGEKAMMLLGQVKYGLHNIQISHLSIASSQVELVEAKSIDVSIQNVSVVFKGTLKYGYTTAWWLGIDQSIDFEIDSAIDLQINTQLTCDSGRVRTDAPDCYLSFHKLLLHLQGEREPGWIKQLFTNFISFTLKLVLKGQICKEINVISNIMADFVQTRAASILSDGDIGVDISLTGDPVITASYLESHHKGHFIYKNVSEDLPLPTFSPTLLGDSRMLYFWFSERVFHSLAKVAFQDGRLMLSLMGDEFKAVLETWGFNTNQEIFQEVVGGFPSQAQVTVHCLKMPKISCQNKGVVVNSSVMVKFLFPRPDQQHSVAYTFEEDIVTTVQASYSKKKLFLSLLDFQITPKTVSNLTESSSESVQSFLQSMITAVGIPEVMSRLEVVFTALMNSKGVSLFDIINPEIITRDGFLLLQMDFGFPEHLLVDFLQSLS
In words: Inhibition of CETP (unknown origin) at 500 uM incubated for 0.5 hrs by double illuminometer/fluorescence counter method relative to control.

For assay [3], the target named is Phospholipid transfer protein (Homo sapiens) (UniProt P55058). In words: Inhibition of PLTP in plasma (unknown origin) assessed as reduction in phospholipid transfer from phospholipid liposome to HDL at 150 uM measured after 1 hr relative to control. The assay is classed as cell-free.
Assay [4] shares this target. As to the kind of experiment: Inhibition of PLTP in plasma (unknown origin) assessed as reduction in phospholipid transfer from phospholipid liposome to HDL at 500 uM measured after 1 hr relative to control. The format is cell-free.

Molecules are shown by their SMILES.

Phospholipid transfer protein (Homo sapiens), sequence (P55058 whole entry): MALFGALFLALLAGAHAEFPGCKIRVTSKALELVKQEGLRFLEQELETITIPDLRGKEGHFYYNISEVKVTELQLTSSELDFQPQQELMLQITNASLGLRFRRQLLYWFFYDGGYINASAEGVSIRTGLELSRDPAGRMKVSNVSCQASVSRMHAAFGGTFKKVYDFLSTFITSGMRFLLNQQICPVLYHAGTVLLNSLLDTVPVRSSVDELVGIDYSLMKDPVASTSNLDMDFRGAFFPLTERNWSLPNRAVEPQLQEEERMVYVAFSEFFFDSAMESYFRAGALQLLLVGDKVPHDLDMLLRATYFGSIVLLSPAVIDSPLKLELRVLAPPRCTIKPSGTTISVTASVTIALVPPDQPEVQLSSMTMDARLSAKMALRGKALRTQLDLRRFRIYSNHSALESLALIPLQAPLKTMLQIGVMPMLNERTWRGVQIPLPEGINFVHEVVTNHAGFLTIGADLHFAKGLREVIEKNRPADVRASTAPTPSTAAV

As a reminder, the inhibition is the relative decrease from the control value, in per cent. As for `COc1ccc(-c2nc(N)sc2Cc2ccc(F)cc2)cc1`, the values for the inhibition in assay [1] and in assay [2] were 11.5% and 52.8%, respectively.
In the case of `O=C(Nc1nc(-c2ccc(O)cc2)c(Cc2ccccc2)s1)c1ccc(Cl)cc1`, the inhibition in assay [3] was determined as 0%; in assay [2] it was 80.4%.
Take `CCCCc1sc(NC(=O)c2cc(O)c(O)c(O)c2)nc1-c1ccc(O)cc1`: the inhibition in assay [1] was 100%; in assay [2] it was 27.3%.
In the case of `O=C(Nc1nc(-c2ccc(O)cc2)c(CC2CCCCC2)s1)c1ccc(O)c(O)c1`, the inhibition is 81.6% in assay [3] and 6% in assay [2].
The matching figures for `O=C(Nc1nc(-c2ccc(O)cc2)c(Cc2ccccc2)s1)c1cc(O)c(O)c(O)c1`: 89.4% and 44.1%.
As to `O=C(Nc1nc(-c2ccc(F)cc2)c(Cc2ccc([N+](=O)[O-])cc2)s1)c1ccc(O)c(O)c1`, the values for the inhibition in assay [1] and in assay [2] were 100% and 0%, respectively.
As to `O=C(Nc1nc(-c2ccc(O)cc2)c(Cc2ccc([N+](=O)[O-])cc2)s1)c1ccc(O)c(O)c1`, the inhibition was 67.6% in assay [1] and 30.4% in assay [2].
For `COc1ccc(C(=O)Nc2nc(-c3ccc(O)cc3)c(Cc3ccccc3)s2)cc1`, the inhibition in assay [3] worked out at 0%; in assay [2], 71.6%.
With `O=C(Nc1nc(-c2ccc(O)cc2)c(Cc2ccc(F)cc2)s1)c1ccc(O)c(O)c1`, the inhibition in assay [1] turned out to be 73.2%; in assay [2], 9.2%.
The matching figures for `Cc1sc(NC(=O)c2cc(O)c(O)c(O)c2)nc1-c1ccc(O)cc1`: 10.7% and 85.9%.
The matching figures for `O=C(Nc1nc(-c2ccccc2)c(Cc2ccc([N+](=O)[O-])cc2)s1)c1ccc(O)c(O)c1`: 100% and 0%.
The matching figures for `O=C(Nc1nc(-c2ccc(O)cc2)c(CC2CCCCC2)s1)c1cc(O)c(O)c(O)c1`: 100% and 20.9%.
Take `COc1ccc(-c2nc(N3CCNCC3)sc2Cc2ccccc2)cc1`: the inhibition is 74.5% in assay [2] and 100% in assay [4].
On to `CCCCc1sc(NC(=O)c2ccc(O)c(O)c2)nc1-c1ccc(O)cc1`, for which the inhibition worked out at 93.4% in assay [1] and 0% in assay [2].
Regarding `O=C(Nc1nc(-c2ccc(O)cc2)c(Cc2ccccc2)s1)c1ccc(O)c(O)c1`, the inhibition was determined as 79.8% in assay [1] and 19.4% in assay [2].
On to `CCCCc1sc(N)nc1-c1ccc(OC)cc1`, for which the results for the inhibition in assay [1] and in assay [2] were 15.3% and 65.4%, respectively.
The matching figures for `Cc1sc(NC(=O)c2ccc(O)c(O)c2)nc1-c1ccc(O)cc1`: 71.9% and 58.7%.
Take `O=C(CCc1ccc(O)c(O)c1)Nc1nc(-c2ccc(O)cc2)c(Cc2ccccc2)s1`: the inhibition worked out at 75.7% in assay [3] and 25.3% in assay [2].
Consider `COc1ccc(-c2nc(N)sc2CC2CCCCC2)cc1`, for which the inhibition in assay [3] was found to be 0%; in assay [2] it was 79.8%.
The matching figures for `O=C(Nc1nc(-c2ccc(O)cc2)c(Cc2ccccc2)s1)c1ccc(O)cc1O`: 11.5% and 88%.
Regarding `COc1ccc(-c2nc(N3CCOCC3)sc2Cc2ccccc2)cc1`, the figures for the inhibition in assay [2] and in assay [4] were 91.6% and 61%, respectively.
For the molecule `O=C(Nc1nc(-c2ccc(O)cc2)c(CCc2ccccc2)s1)c1ccc(O)c(O)c1`, the inhibition amounted to 97% in assay [1] and 0% in assay [2].
The matching figures for `COc1ccc(-c2nc(N)sc2CCc2ccccc2)cc1`: 24% and 75.8%.

The values above are taken from ChEMBL document CHEMBL4418264, “2,4,5-trisubstituted thiazole compounds,preparation methods,pharmaceutical compositions and medical uses thereof” (2014).
